The results in this text go back to patent US20030162759A1, “Aldosterone blocker therapy to prevent or treat inflammation-related disorders” (priority 2000, published 2003).

Each structure is given as a SMILES string. Several values for one entry are separate records, joined by “and”; a condition that tells them apart may be missing. Equal entries are not always repeated. Entries after “also recorded” stand apart in the source; their conditions may differ.

Holding throughout (format): in vivo, rat
Test [1] relates to Collagen III. As to the kind of experiment: Assay C: Collagen III mRNA in left ventricle (TaqMan). Particulars: for Collagen-III mRNA: individual rats; for Collagen-III mRNA, Mean: group mean. How it is done: The procedure of Assay B was expanded upon in a further study. […] Myocardial tissue from animals in each treatment group was examined after 7, 14, or 30 days of treatment.
Potassium chloride supplementation was added to the saline solution in order to prevent the potential hypokalemia associated with aldosterone excess.
At the time of the surgery, an Alzet 2002 osmotic minipump (Alza Corp., Palo Alto, Calif.) containing either vehicle (9% ethanol/87% propylene glycol/4% dH2O) or 1.0 mg/mL d-aldosterone (Sigma Chemical, St. Louis, Mo.) was inserted subcutaneously at the nape of the neck. Aldosterone was administered at a dose of 0.75 g/hour. […] Animals were sacrificed from each group (n=8-13) after 7, 14, or 30 days of treatment.
Following exsanguination, hearts and kidneys were isolated, removed, rinsed in cold phosphate-buffered saline, and blotted dry. Kidneys were immediately bifurcated through the long axis with a razor blade and placed in 10% neutral buffered formalin (NBF, Richard-Allen Scientific, Kalamazoo, Mich.). For the hearts, the right ventricle (RV) was cut away from the left ventricle (LV), both ventricles were weighed using a Mettler AE163 balance (Mettler-Toledo, Inc., Hightstown, N.J.), and the RV was placed in 10% NBF. A 2 mm coronal slab of the LV apex was removed and frozen with dry ice/isopentane for analysis of gene expression and the remaining portion of the LV was placed in 10% NBF for fixation. Final wet trimming was completed after 3-4 days fixation where a second 2 mm coronal slab was removed for hydroxyproline analysis and a third 2 mm slab was removed from the equatorial region for histology.
The fluorogenic 5′-nuclease assay (TaqMan PCR) using Applied Biosystems' 7700 Sequence Detection System (Applied Biosystems, Foster City, Calif.) allowed for real time detection/quantitation of a specific gene by monitoring the increase in fluorescence of a gene-specific, dye-labeled oligonucleotide probe. Probes for target and reference genes were labeled at the 5′-end with a 6-carboxyfluorescein (6FAM) reporter dye and at the 3′-end with a 6-carboxy-N,N,N′,N′-tetramethylrhodamine (TAMRA) quencher dye. When the probe was annealed to the target gene, fluorescence of 6FAM was prevented by the close proximity of TAMRA. The exonuclease activity of Taq polymerase released the dyes from the oligonucleotide probe by displacing the probe from the target sequence resulting in fluorescence excitation in direct proportion to the amount of target message present. Data analysis was performed using the Sequence Detection System software from Applied Biosystems.
Primers and probes were designed using Oligo Primer Analysis Software, Version 5.0 (National Biosciences Inc. (NBI)-Wojciech Rychlik, Cascade, Colo.). Primers were synthesized by Life Technologies (Grand Island, N.Y.) and probes were synthesized by Applied Biosystems. Primer/probe sets were designed from known sequences of rat genes to be analyzed. All target gene values were normalized to a reference gene, constitutively expressed cyclophilin. Primer/probe sets sequences can be found in Table 8
RNA was extracted from frozen (−70° C.) left ventricle (LV) tissue (approximately 10-20 mg) using 1.5 mL RNA-STAT 60 according to manufacturer's instructions (Leedo Medical Laboratories, Inc., Houston, Tex.). Briefly, tissues were homogenized using a tissue homogenizer equipped with a 5 mm probe (Ultra-Turrax T8 Homogenizer, IKA Works, Inc. Wilmington, N.C.). Following homogenization, an equal volume of molecular grade chloroform (Sigma Chemical Co., St. Louis, Mo.) was incubated with periodic mixing for 10 min at room temperature. Samples were centrifuged at 12,000 g for 10 min and RNA was precipitated from the top layer by adding an equal volume of molecular grade isopropanol (Sigma Chemical Co.) followed by an overnight incubation at −80° C.
In general terms: Quantitative PCR measures a nucleic acid by following its amplification.

For test [2], the system named is aldosterone infused rats. As to the kind of experiment: Assay B aldosterone infusion model: heart histology (vascular inflammatory lesions, myocardial injury). Conditions: saline-drinking, uni-nephrectomized rats, 4 weeks, eplerenone 100 mpk p.o. The procedure: Assay B: In vivo Aldosterone Infusion Model Male Sprague Dawley rats (n=39; BW=250 g) […] Uni-nephrectomy performed during implantation of mini-pumps 2. Aldosterone (0.75 mg/hr, sc via aizet minipump) 2. […] 1. […] Sacrifice after 4 weeks. Hearts were harvested and divided by half through a transverse section at the mid-ventricles: The upper half was stored into formalin. The bottom part was snap-frozen in liquid nitrogen for biochemical analysis. Hearts were stained with hematoxylin&eosin and the collagen specific dye picro-sirius red and were analyzed for determination of interstitial collagen volume fraction and morphologic abnormalities (i.e. necrosis, vascular injury).

The test system of test [3] is aldosterone + salt treated rats. The test is described as follows: Assay C: myocardial histopathology, semi-quantitative injury score 0 to 4. Conditions: for Myocardial Necrosis (0-4), Mean: group mean. How it is done:
The procedure of Assay B was expanded upon in a further study. […] Myocardial tissue from animals in each treatment group was examined after 7, 14, or 30 days of treatment. […] Lesions were preceded by the expression and progressive upregulation of proinflammatory molecules. […] Prior to surgery the animals were individually weighed and placed in one of the following groups: […] Potassium chloride supplementation was added to the saline solution in order to prevent the potential hypokalemia associated with aldosterone excess. […] Louis, Mo.) was inserted subcutaneously at the nape of the neck. Aldosterone was administered at a dose of […]. […] Animals were sacrificed from each group (n=8-13) after 7, 14, or 30 days of treatment. Following exsanguination, hearts and kidneys were isolated, removed, rinsed in cold phosphate-buffered saline, and blotted dry. […] The equatorial regions of the heart were routinely processed into paraffin with an automated tissue processor (Hypercenter XP, Shandon/Lipshaw Inc., Pittsburgh, Pa.) and embedded into fresh paraffin apical side down (Shandon Embedding Center, Shandon/Lipshaw Inc.). […] Ten m sections were stained with the collagen specific stain, Picrosirius Red F3BA (Saturated Picric Acid (Sigma Chemical, St. […] Waterbury, Conn.) (6). Mounted tissues were hydrated with water. […] Slides were coverslipped with #1 cover glass using Permount Histological Mounting Media (Fisher Scientific). Two slides mounted with 5 m sections were cut for each animal. One slide was processed for H&E staining and one for Periodic Acid Schiff (PAS) staining. The H&E and PAS were used for pathological scoring of the hearts. Semi-quantification of myocardial injury was performed as described previously with minor modifications (7). Briefly, a scale from 0 to 4 was used to score the level of myocardial injury. A score of 0 represented no damage. […] Myocardial necrosis was defined as the presence of necrotic changes in cardiomyocytes such as nuclear pyknosis or karyolysis, non-contracting marginal wavy fibers and hypereosinophilia of the cytoplasm, or clear evidence of destruction of the cardiomyocyte membrane.

Test [4] relates to osteopontin. The test is described as follows: Assay B aldosterone infusion model: osteopontin immunohistochemistry of hearts. Particulars: aldosterone infused rats; eplerenone 100 mpk p.o. The procedure:
Assay B: In vivo Aldosterone Infusion Model Male Sprague Dawley rats (n=39; BW=250 g) […] Uni-nephrectomy performed during implantation of mini-pumps 2. Aldosterone ([…], sc via aizet minipump) 2. […] 1. […] Sacrifice after 4 weeks. Determination of osteopontin and COX-2 was performed by quantitative RT-PCR (Taqman). Osteopontin was also identified in the heart by immunohistochemistry.

With `C[C@]12CCC(=O)C=C1CC[C@@H]1[C@@H]2[C@@H](O)C[C@]2(C=O)[C@@H](C(=O)CO)CC[C@@H]12` [aldosterone], the “Collagen-III mRNA” value is 0.65 AU and 1.30 AU in test [1] (Table 9.14, 7-day protocol, listed as Aldosterone + salt); 0.76 AU and 1.80 AU and 0.44 AU and 1.39 AU and 0.59 AU in test [1] (14 days of treatment, relative to cyclophilin expression, listed as Aldosterone + salt); 0.75 AU and 0.58 AU and 0.72 AU in test [1] (30 days of treatment, relative to cyclophilin expression, listed as Aldosterone + salt). The “Collagen-III mRNA, Mean” value came to 1.08 AU in test [1] (14 days of treatment) and 1.39 AU in test [1] (30 days of treatment). Also, the “Vascular inflammatory changes / myocardial injury” value in test [2] is given as “severe vascular inflammatory lesions”. For the same compound, the “Myocardial Necrosis (0-4)” value was 0.0 in test [3] (Table 9.14, 7-day protocol, score 0-4, group Mean); 0.0 in test [3] (Table 9.14, 7-day protocol, score 0-4, individual rats); 0.0 ± 0.0 in test [3] (mean ± SEM after 7 days of treatment, eplerenone 100 mg/kg/day). In addition, the “Myocardial Necrosis (0-4), Mean” value in test [3] (14 days of treatment) amounted to 0.8; in test [3] (30 days of treatment) it was 2.0. For the same compound, the “Osteopontin expression in the heart (immunostaining)” value in test [4] is listed as “osteopontin was clearly identified in the media of coronary arteries”.
With `COC(=O)[C@@H]1CC2=CC(=O)CC[C@]2(C)[C@@]23O[C@@H]2C[C@@]2(C)[C@@H](CC[C@@]24CCC(=O)O4)[C@H]13` [eplerenone, Pregn-4-ene-7,21-dicarboxylic acid, 9,11-epoxy-17-hydroxy-3-oxo-, γ-lactone, methyl ester, (7α, 11α, 17β) -], the “Collagen-III mRNA” value in test [1] (14 days of treatment, relative to cyclophilin expression, listed as Eplerenone + aldosterone + salt) was 0.60 AU (2×) and 1.70 AU and 1.81 AU and 1.80 AU; in test [1] (30 days of treatment, relative to cyclophilin expression, listed as Eplerenone + aldosterone + salt), 0.72 AU and 0.89 AU and 0.73 AU. In addition, the “Collagen-III (collagen type III mRNA)” value in test [1] (mean ± SEM after 7 days of treatment, relative to cyclophilin expression) is reported as 1.09 ± 0.21 AU; in test [1] (mean ± SEM after 30 days of treatment, relative to cyclophilin expression), 1.53 ± 0.23 AU. In test [2], the “Vascular inflammatory changes / myocardial injury” value was “completely prevented the vascular inflammatory changes; also recorded: prevention by eplerenone of myocardial injury”. The “Myocardial injury (vascular and myocardial damage, histopathology)” value in test [3] (7, 14, 30 days, eplerenone 100 mg/kg/day) was “markedly attenuated myocardial injury at all time points; also recorded: markedly attenuated this initial vascular inflammatory response and subsequent myocardial injury”. In addition, the “Myocardial Necrosis (0-4), Mean” value in test [3] (14 days of treatment) was 0.5; in test [3] (30 days of treatment) it was 0.0. In addition, the “Myocardial Necrosis (0-4)” value is given as 0.0 in test [3] (individual rats, 14 days of treatment, eplerenone 100 mg/kg/day, listed as Eplerenone + aldosterone + salt) and 0.0 ± 0.0 in test [3] (mean ± SEM after 30 days of treatment, eplerenone 100 mg/kg/day). For the same compound, in test [4], the “Osteopontin expression in the heart (immunostaining)” value is on record as “prevention by eplerenone of induction of osteopontin expression; also recorded: prevented the expression of osteopontin”.
